Test results: US7141541B1, “Use of peptides” (University Court of the University of Dundee, priority 1999, dated 2006)
Where a SMILES comes first, the peptide text is derived from it. Where no end group is shown, it is not given here. The star is where a group is joined. Biotin = O=C1N[C@H]2[C@H](CS[C@H]2CCCCC(=O)*)N1; Cbz = O=C(OCc1ccccc1)*; CH2F = FC*

Key:
[1] = test system: cap-dependent translation initiation; assay: in vitro translation assay, cap-dependent; assay type: biochemical
[2] = test system: cap-independent translation initiation; assay: in vitro translation assay, cap-independent; assay type: biochemical
recombinant human eIF4E [3] = target: recombinant human eIF4E (Homo sapiens, UniProt P06730); assay: in vitro binding (pull-down) assay with eIF4E; conditions: for interaction with human eIF4E: FIG. 12b(i), 1 μg recombinant eIF4E, 0.2 mM biotinylated peptide, 1 h at 4° C.
Method: (§1) Sequences of biotinylated, penetratin-linked peptides. U=Norvaline, a substitution for cysteine. Conserved residues that are important in binding to eIF4E are underlined. b). In vitro binding assay. i) 1 μg recombinant eIF4E was incubated with 0.2 mM biotinylated peptides in a total volume of 50 μl wash buffer (1×PBS/250 mM Kcl) for 1 h at 4° C. ii) 0.2 mM Hu4G or Hu4G YLL-AAA was incubated with 200 μg MRC5 cell lysate for 1 h at 4° C. in a total volume of 50 μl wash buffer. In all cases the biotinylated peptides and associated proteins were pulled down using streptavidin agarose. The proteins were separated by SDS PAGE and subjected to Western blotting using anti-eIF4E antibody. Detection was by ECL;
In order to study directly the role of eIF4E in cell transformation, a series of biotinylated synthetic peptides (Peptides synthesised by Cyclacel) corresponding to the eIF4E interacting domain (binding motif) of human eIF4G, and wheat eIF4G and alanine substituted peptides thereof were synthesised (see FIG. 12a) and tested for their capacity to interact with ^35S-Met labelled in vitro translated human eIF4E (NB. Peptides BP1 and BP1 YLM-AAA were not biotinylated). Peptides were coupled to streptavidin coated agarose beads by a N-terminus linked biotin group and washed in PBS/0.2% Tween 3× before being incubated for 1 hour at +4° C. with in vitro translated human eIF4E. Beads were washed as above and boiled for 5 min. in SDS loading buffer before the peptide bound proteins were separated on a 10% SDS gel. The bands were visualised by autoradiography.

serum deprived cells = assay: protection from peptide-induced cell death by serum / MAP kinase activation (FIG. 15); assay type: cell-based
Method: FIG. 15 illustrates that the acute activation of MAP kinase protects cells from 4E-binding peptide induced cell death; and
In the presence of 10% ECS, cells were resistant to treatment with 20 μm of the peptides. Cells only died if they were serum deprived for 72 hours (more than 85%) within 15 minutes after the peptide had been applied (see FIG. 15). However, if serum deprived cells (72 h) were pre-treated with 10% FCS or with 20 nM PMA (phorbol ester) for 15 minutes before the peptides were added, the cells survived the subsequent peptide treatment (60–70%).
Furthermore, if the serum deprived cells were instead pre-treated with the MAPK inhibitor PD098059 for 1 hour before 10% FCS was added, approximately 80–90% of the cells died.

MRC5 cells [4] = assay: peptide-induced cell death (apoptosis) in MRC5 cells; assay type: cell-based; conditions: for biological effect (apoptosis): MRC5 cells / cultured mammalian cells
Text: FIG. 8 is a table illustrating the induction of apoptosis by eIF4G peptides in MRC5 cells;
FIG. 9 is a summary of the results of inhibition of eIF4G(413-424)-induced apoptosis;

[5] = test system: HaCaT, Swiss 3T3, RATI and IIeLa cells; assay: cell survival in other cell-types; assay type: cell-based; conditions: results not shown
MRC5 cells [6] = assay: TUNEL analysis; assay type: cell-based; conditions: 10 μM peptide
Method: (§2) MRC5 cells were incubated with 10 μM Hu4G peptide for 10 min. Cells visualised with fluorescein by fluorescence microscopy. […] 80% of cells incubated with the 10 μM Hu4G peptide fluoresced positive. d) Images of DAPI-stained MRC5 cells incubated with either 20 μM Hu4G or Hu4G YLL-AAA peptide for 40 min. Arrows indicate the position of a cell with either a condensed nucleus (top right) or a nucleus with a punctate appearance (bottom left). e) Visualisation of effects on the MPT. Serum-starved MRC5 cells were loaded with 0.1 μM JCl for 30 min prior to addition of 10 μM peptide. Changes in mitochondrial permeability were viewed by laser scanning confocal microscopy (krypton/argon laser) using identical setting. Green channel: excitation 488 nm/emission 522 nm. Red channel: excitation 568 nm/emission 585 nm. Channels were collected separately to avoid cross over. Images were taken 5 min after addition of the peptide;

MRC5 cells [7] = assay: mitochondrial permeability transition (JC1 dye, confocal microscopy); assay type: cell-based; conditions: 10 μM peptide, serum-starved MRC5 cells
Method: as §2
An early event considered decisive in apoptosis is the opening of the mitochondrial permeability transition (MPT) pore (20–22). To characterise further the eIF4E-binding peptide-induced cell death, the development of the MPT was investigated in living MRC5 cells loaded with the fluorescent dye, JC1 (21).

[8] = target: T1, eIF4E in MRC5 cell lysate (Homo sapiens, UniProt P06730); assay: pull-down of eIF4E from MRC5 cell lysate; assay type: binding; conditions: 0.2 mM peptide, 200 μg MRC5 cell lysate, 1 h at 4° C.
T1 construct: endogenous in cells; host or cells: MRC5
Method: as §1

MRC5 cells [9] = assay: [35S]methionine incorporation into protein; assay type: cell-based; conditions: serum deprived cells, 30 minutes
Method: (§3) FIG. 16 illustrates that eIF4E binding peptide cell death is not through eIF4E's known role in mRNA translation. a) 72 h serum-starved MRC5 cells were treated with 100 μg/ml and 10 μg/ml cylcoheximide, 1 μg/ml and 0.1 μg/ml pactamycine or 10 μM Hu4G peptide for 2 h prior to a MTT assay. Cells were pulsed labelled with [^35S]methionine for 30 min after addition of the inhibitors/peptide. The incorporation of [^35S]methionine into protein was determined following hot trichloroacetic acid precipitation. b) 72 h serum-starved MRC5 cells were treated with 100 μg/ml cycloheximide (Chx), 1 μg/ml pactamycine (Pact) or c) MRC5 cells which had been starved of serum for 72 h were pre-incubated with 100 μg/ml cycloheximide or 1 μg/ml pactamycine for 30 min prior to addition of 10 μM Hu4G peptide. Cells were then further incubated for 1.5 h prior to a MTT assay. Results from three independent experiments (+/− SEM).
Serum deprived cells were treated with the general translation inhibitors Cyclohexamide or Pactamycin at indicated concentrations or the H4G peptide in the presence of 35S-Met for 30 minutes (see FIGS. 16a,b). Cells were lysed and the amount of translation was estimated by counting incorporated 35S-Met in precipitated protein fractions.

MRC5 cells [10] = assay: cell survival by MTT assay; assay type: cell-based; conditions: for cell death / cell viability: various concentrations, 72 h serum-starved MRC5 cells, FIGS. 13b,c,d
Method: FIGS. 13a–d are graphs showing cell survival (% of control, untreated cells) as measured by MTT assay. a) Lane 1: 10 μM BP2 peptide added to serum-fed cells or Lane 2, 3, 4: 10 μM BP2 peptide added to 24 h, 48 h or 72 h serum-starved cells respectively. Lane 5: 10 μM BP2 YLL-AAA added to 72 h serum starved cells. Lane 6: 72 h serum starved cells incubated in 10% serum for 1 h prior to addition to 10 μM BP2 peptide. Lane 7: 72 h serum starved cells incubated with 100 μg/ml cycloheximide followed by a 1 h incubation with 10% serum prior to the addition of 10 μM BP2 peptide. In all cases the cells were then further incubated for 1 h in 0.1 mg/ml MTT. Cells were lysed in DMSO and absorbance was measured at […]. b–d) Varying concentrations of peptides were added to 72 h serum starved MRC5 cells. After 30 min incubation the cells were then further incubated for 1 h in 0.1 mg/ml MTT. Cells were lysed in DMSO and absorbance was measured at 570 nm.

MRC5 cells [11] = assay: MTT assay with general translation inhibitors (FIG. 16); assay type: cell-based; conditions: for protection against the effect of the Hu4G peptide: pre-incubation 30 min prior to 10 μM Hu4G peptide; for cell killing: serum deprived cells
Method: as §3

recombinant human eIF4E [12] = target: T2, recombinant human eIF4E (human, UniProt P06730 1-217, limits assumed); assay: in vitro pull-down of recombinant human eIF4E (FIG. 5)
T2 construct: also called in vitro translated human eIF4E; eukaryotic initiation factor 4E

recombinant human eIF4E [13] = target: T2, recombinant human eIF4E; assay: streptavidin agarose pull-down with biotinylated peptide
Method: as §1, with “FIG. 12 illustrates that eIF4E-binding peptides leads to rapid, dose-dependent, cell death. a). Sequences” for “Sequences”, “µg” for “μg”, “µl” for “μl”

T2 sequence (P06730 whole entry): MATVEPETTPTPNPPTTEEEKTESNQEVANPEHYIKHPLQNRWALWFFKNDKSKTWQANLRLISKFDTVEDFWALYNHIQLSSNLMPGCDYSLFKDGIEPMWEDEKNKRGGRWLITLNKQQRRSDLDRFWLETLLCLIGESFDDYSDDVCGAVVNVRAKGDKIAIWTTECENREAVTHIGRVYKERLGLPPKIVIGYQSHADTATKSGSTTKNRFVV
Sequence of recombinant human eIF4E (Homo sapiens, UniProt P06730) (P06730 whole entry): as above
T1 sequence (P06730 whole entry): as above

RVRYSRDQLLDL (listed as Triticum aestivum) [wheat eIF4G(62-73)]
inhibition of cap-dependent translation initiation in vitro [1]: found to inhibit cap-dependent translation initiation | inhibition of cap-independent translation initiation in vitro [2]: not cap-independent translation initiation | binding to recombinant human eIF4E in vitro (recombinant human eIF4E [3]; FIG. 4, FIG. 5): bound to and pulled down more recombinant human eIF4F in vitro than human eIF4G(569-580) did

COc1cccc(-c2cc(=O)c3ccccc3o2)c1N [PD098059, reference compound]
cells died (serum deprived cells; serum deprived cells pre-treated for 1 hour before 10% FCS was added): 80–90% | effect on serum induced resistance to the peptides (MRC5 cells [4]; pre-treatment with the MEK inhibitor): serum induced resistance could be inhibited

Hu4G YLL-AAA: triple alanine substituted, penetratin-linked human eIF4G peptide, unable to bind eIF4E (KKRADREFAAGFRQIKIWFQNRRMKWKK)
cell survival [5]: no effect on cell survival | TUNEL signal (MRC5 cells [6]): No signal was observed | interaction with human eIF4E (recombinant human eIF4E [3]): did not interact with eIF4E | changes in JC1 fluorescence (MPT pore opening) (MRC5 cells [7]): No changes in florescence were observed | binding of eIF4E in cell lysates [8]: did not | biological effect (apoptosis) (MRC5 cells [4]; FIG. 8): did not cause the observed biological effect (apoptosis)

C[C@@H]1C[C@@H]([C@H](O)CC2CC(=O)NC(=O)C2)C(=O)[C@@H](C)C1 [cycloheximide]
incorporation of 35S-Met (translation) (MRC5 cells [9]): block translation | effect on protective effect of serum (MRC5 cells [10]; pre-incubation with 100 μg/ml, then 10% serum 1 h, then 10 μM BP2 peptide): could not be inhibited | protection against the effect of the Hu4G peptide (MRC5 cells [11]): did not result in any protection | cell killing (MRC5 cells [11]): do not kill the cells

COC(=O)C[C@H](NC(=O)[C@H](C)NC(=O)[C@@H](NC(=O)OCc1ccccc1)C(C)C)C(=O)CF [ZVAD.fmk, reference compound] (Cbz-Val-Ala-Asp(OMe)-CH2F)
effect of pre-treatment on peptide-induced cell death (MRC5 cells [4]; MRC5 cells, results not shown): did not affect peptide-induced cell death

CC(=O)c1cccc(N[C@H]2[C@H](N)[C@@](NC(=O)N(C)C)([C@H](C)O)[C@@](C)(O)[C@@]2(O)COC(=O)c2c(C)cccc2O)c1 [pactamycin]
incorporation of 35S-Met (translation) (MRC5 cells [9]): block translation | protection against the effect of the Hu4G peptide (MRC5 cells [11]): did not result in any protection | cell killing (MRC5 cells [11]): do not kill the cells

CCCCCCCCCCCCCC(=O)O[C@@H]1[C@@H](C)[C@@]2(O)[C@@H](C=C(CO)C[C@]3(O)C(=O)C(C)=C[C@@H]23)[C@@H]2C(C)(C)[C@]12OC(C)=O [PMA]
cells survived the subsequent peptide treatment (serum deprived cells; serum deprived cells (72 h) pre-treated with 20 nM for 15 minutes): 60–70%

W4G: biotinylated, penetratin-linked peptide of the eIF4E binding motif of wheat eIF4G (Biotin-RVRYSRDQLLDLRQIKIWFQNRRMKWKK)
cell death / cell viability (MRC5 cells [10]): rapid, dose-dependent, cell death | effect of limited serum treatment on sensitivity to the peptide (MRC5 cells [4]; FIG. 9): Resistance | cell death (possibly by apoptosis) (MRC5 cells [4]; serum starved cell lines, FIG. 8): caused rapid cell death

Hu4G Y-A: singly alanine-substituted, penetratin-linked human eIF4G peptide (KKRADREFLLGFRQIKIWFQNRRMKWKK)
cell death / cell viability (MRC5 cells [10]): reduced capacity to induce cell death | interaction with human eIF4E (recombinant human eIF4E [3]): lower binding affinity | biological effect (apoptosis) (MRC5 cells [4]; FIG. 8): intermediate biological effect

RVRYSRDQLLDL [wheat eIF4G(62-73)]
binding result (recombinant human eIF4E [12]): binds

B1: Human eIF4G(569-580)Y416AL421AL422A-Penetratin (peptide)
peptide: KKRADREFAAGFRQIKIWFQNRRMKWKK
modifications: not fully specified (N-terminus)
notes: Order of pieces from the printed name; also called Hu4G YLL-AAA; triple alanine human eIF4G peptide
binding result (recombinant human eIF4E [13]): no binding (tested: 0.2 mM peptide (FIG. 12b legend))

KKRYDREFLLGF (also called human eIF4G413-424) [human eIF4G(569-580)]
binding result (recombinant human eIF4E [12]): binds
